Reference: US12622968B2, “Formulation for oral delivery of proteins, peptides and small molecules with poor permeability” (R.P. Scherer Technologies, LLC, priority 2019, dated 2026)
Read-outs that look alike come from different tables or passages of the source.

Assay: Single dose oral capsule pharmacokinetics of BHV-3500 in dogs (plasma LC-MS/MS)
Format: in vivo, beagle dogs
Conditions: female, beagle, dog, plasma; for Tmax: read-out: Tmax; for concentration at 1 h: 1 h post-dose; for concentration at 1 h / concentration at 2 h / concentration at 4 h: read-out: BHV-3500 Concentration in Dog Plasma; for concentration at 2 h: 2 h post-dose; for Cmax: read-out: Cmax; for concentration at 4 h: 4 h post-dose; for AUC(0-t): read-out: AUC0-4 hr
Protocol: The pharmacokinetics (PK) of BHV-3500 after a single oral capsule of BHV-3500 in dogs were investigated.
After each dose, blood samples (approximately 3 mL from the jugular vein) for determination of plasma levels of BHV-3500 were obtained from of each dog at six time points (pre-dose; 15, 30, and 60 minutes and 2 and 4 hours post-dose. EDTA was used as the anticoagulant. Plasma samples were frozen at approximately −70′C until analyzed.
For the determination of BHV-3500 in plasma, a 50 μL aliquot from each sample was transferred into the appropriate well of a 96-well plate to which 10 μL of 50% acetonitrile (ACN) in water was added, followed by 250 μL of internal standard solution (10 ng/mL BHV-3500-d8 in ACN). After sealing the plate and vortexing for approximately 5 minutes, the plate was centrifuged at 4,000 rpm for 10 minutes at 4±4° C. A portion (100 μL) of the resulting supernatant was transferred to into the appropriate well (containing 300 μL 0.15% formic acid in water) of another 96-well plate. This plate was sealed and its contents mixed prior to instrumental analysis.
Freshly prepared BHV-3500 standard curves and QC samples were analyzed along with the study samples. Instrument calibrators were prepared by adding 10 μL of a stock BHV-3500 solution to 50 μL of blank dog plasma. Blank dog plasma was sourced from BioIVT (Hicksville, NY) and stored frozen at −20° C. Nominal calibrator concentrations ranged from 2.00 to 200 ng/mL. QC samples were prepared at concentrations of 6.00, 50.0 and 150 ng/mL. Calibrators and QC samples were processed for analysis following the extraction procedure described above.
Calibrator, QC and study samples were analyzed under LC-S/MS instrument conditions detailed in Table 7.
Calibration curves were calculated from the linear regression (weighting factor of 1/x2) of the analyte to internal standard peak area ratios versus the analyte concentrations. Concentrations of analyte in the samples were determined using the peak area ratios and the regression parameters of the calibration curves.
Individual animal plasma BHV-3500 concentration data at scheduled (nominal) sampling times were analyzed using the non-compartmental model f r extravascular administration with Phoenix WinNonlin software (Version 8.1; Certara, Princeton, NJ).
Elimination rate constant values (λz) were calculated by log-linear regression on data points of the terminal phase (using Phoenix WinNonlin's Best Fit Lambda Z Calculation Method option) when allowed by the data; the plasma elimination half-life (t1/2) was calculated as ln(2)/λz. Area under the plasma concentration-time curve values from time zero to the concentration at the 4 hour time point (AUC0-4 hr) were calculated by the linear-up/log-down trapezoidal rule.
Nominal dose levels were used for PK analysis. The PK parameters listed below were evaluated (as applicable and when allowed by the data). • Elimination half-life (t1/2) • Time of occurrence of maximum plasma concentration (Tmax) • Maximum plasma concentration (Cmax) • Area under plasma concentration-time curve [0 to the 4 hour time point; AUC0-4hr]

[1] = po, 50 mg, Group 4, oral capsule, 50 mg BHV-3500, no vehicle, average
[2] = po, 50 mg, Group 4, oral capsule, 50 mg BHV-3500, no vehicle, individual dogs
[3] = po, 50 mg, Group 5, oral capsule, 50 mg BHV-3500 in 900 mg vehicle of Formulation 2 (SEDDS excipients), average
[4] = po, 50 mg, Group 6, oral capsule, 50 mg BHV-3500 in 25 mg DDM, average
[5] = po, 50 mg, Group 6, oral capsule, 50 mg BHV-3500 in 25 mg DDM, individual dogs
[6] = Group 2, oral capsule, 20 mg BHV-3500 in 900 mg vehicle of Formulation 2 (SEDDS excipients), individual dogs

## Cc1cc(C[C@@H](NC(=O)N2CCC(c3cc4ccccc4[nH]c3=O)CC2)C(=O)N2CCN(C3CCN(C)CC3)CC2)cc2cn[nH]c12 [BHV-3500, (R)—N-(3-(7-methyl-1H indazol-5-yl)-1-(4-(1-methylpiperidin-4-yl)piperazin-1-yl)-1-oxopropan-2-yl)-4-(2-oxo-1,2 dihydroquinolin-3-yl)piperidine-1-carboxamide]
po, 20 mg, Group 3, oral capsule, 20 mg BHV-3500 in 25 mg DDM, median
  Tmax: 2 h
[1]
  concentration at 1 h: 3.35 ng/mL
  concentration at 2 h: 6.18 ng/mL
  Cmax: 6.18 ng/mL
[2]
  concentration at 1 h: 2.25 ng/mL
  concentration at 2 h: 7.57 ng/mL
  Cmax: 7.57 ng/mL
  Tmax: 2 h
po, 50 mg, Group 4, oral capsule, 50 mg BHV-3500, no vehicle, median
  Tmax: 2 h
[3]
  concentration at 1 h: 11.5 ng/mL
  concentration at 2 h: 40.6 ng/mL
  concentration at 4 h: 7.97 ng/mL
  AUC(0-t): 70.6 ng·h/mL
  Cmax: 40.6 ng/mL
po, 50 mg, Group 5, oral capsule, 50 mg BHV-3500 in 900 mg vehicle of Formulation 2 (SEDDS excipients), individual dogs
  Tmax: 2 h
po, 50 mg, Group 5, oral capsule, 50 mg BHV-3500 in 900 mg vehicle of Formulation 2 (SEDDS excipients), median
  Tmax: 2 h
[4]
  concentration at 1 h: 2.42 ng/mL
  concentration at 2 h: 6.05 ng/mL
  concentration at 4 h: 8.67 ng/mL
  AUC(0-t): 17.3 ng·h/mL
  Cmax: 6.59 ng/mL
[5]
  concentration at 1 h: 2.42 ng/mL
  concentration at 2 h: 6.05 ng/mL
  concentration at 4 h: 12 ng/mL
po, 50 mg, Group 6, oral capsule, 50 mg BHV-3500 in 25 mg DDM, median
  Tmax: 4 h
[6]
  concentration at 1 h: 2.57 ng/mL
  concentration at 4 h: 3.09 ng/mL
Group 6, oral capsule, 50 mg BHV-3500 in 25 mg DDM, individual dogs
  concentration at 4 h: 5.34 ng/mL
